pEC50: −log10 of the molar value.

The target in this assay is T1, human M4 muscarinic acetylcholine receptor (Homo sapiens, UniProt P08173).
T1 construct: expressed in transfected cells; host or cells: CHO-K1
T1 sequence (P08173 1-479): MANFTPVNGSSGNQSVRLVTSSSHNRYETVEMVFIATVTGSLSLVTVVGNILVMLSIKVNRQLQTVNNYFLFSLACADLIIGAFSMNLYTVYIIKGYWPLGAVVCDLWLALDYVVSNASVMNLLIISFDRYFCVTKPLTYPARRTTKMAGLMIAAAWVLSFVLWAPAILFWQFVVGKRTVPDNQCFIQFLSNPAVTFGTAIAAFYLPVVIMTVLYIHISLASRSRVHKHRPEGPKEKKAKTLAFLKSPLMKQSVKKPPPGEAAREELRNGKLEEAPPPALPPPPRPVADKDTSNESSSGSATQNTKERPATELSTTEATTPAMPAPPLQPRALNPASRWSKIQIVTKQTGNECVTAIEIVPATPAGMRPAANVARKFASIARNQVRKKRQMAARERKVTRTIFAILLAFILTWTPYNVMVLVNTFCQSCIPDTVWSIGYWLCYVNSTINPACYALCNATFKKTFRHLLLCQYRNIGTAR
The experiment in a line: human FLIPR-based M4 PAM assay (CHO-K1 cells with human M4 receptor and Gaqi5, calcium dye fluorescence). To be noted: inflection point (IP) of dose response curve, acetylcholine added at 20% of maximum response, read-out: M4 FLIPPR Hu IP. It is filed as cell-based. In short, it runs like this:
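CHO-K1 cells stably expressing human M4 with chimeric Gaqi5, calcium-dye loaded ~1 h at 37° C; compound added at increasing concentrations 4 min before acetylcholine at an EC20 concentration (sometimes a further EC70 addition).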
Take `COc1cc2ccc(-c3nc(F)ccc3-c3cnn(CC4(C)CCCC4)c3)cc2nn1` [Example 92, 7-(6-fluoro-3-(1-((1-methylcyclopentyl)methyl)-1H-pyrazol-4-yl)pyridin-2-yl)-3-methoxycinnoline]: the pEC50 is 8.40.

`Cc1cc(-c2cnn(CC3(C)CCCC3)c2)c(-c2ccn3ccnc3c2)nc1F` [Example 93, 7-(6-fluoro-5-methyl-3-(1-((1-methylcyclopentyl)methyl)-1H-pyrazol-4-yl)pyridin-2-yl)imidazo[1,2-a]pyridine]: the pEC50 was 7.47.

Take `Cc1cc(-c2cnn(CC3(F)CCCC3)c2)c(-c2ccn3ccnc3c2)nc1F` [Example 94, 7-(6-fluoro-3-(1-((1-fluorocyclopentyl)methyl)-1H-pyrazol-4-yl)-5-methylpyridin-2-yl) imidazo[1,2-a]pyridine]: the pEC50 is 7.46.

In the case of `Fc1cnc(-c2ccc3cccnc3c2)c(-c2cnn(CC3(F)CCCC3)c2)c1` [Example 95, 7-(5-fluoro-3-(1-((1-fluorocyclopentyl)methyl)-1H-pyrazol-4-yl)pyridin-2-yl) quinoline], the pEC50 was 7.10.

On to `Cc1cn2ccc(-c3ncc(F)cc3-c3cnn(CC4(F)CCCC4)c3)cc2n1` [Example 96, 7-(5-fluoro-3-(1-((1-fluorocyclopentyl)methyl)-1H-pyrazol-4-yl)pyridin-2-yl)-2-methylimidazo[1,2-a] pyridine], for which the pEC50 is 7.46.

Turning to `Cc1nc2cc(-c3ncc(F)cc3-c3cnn(CC4(F)CCCC4)c3)ccn2c1C` [Example 97, 7-(5-fluoro-3-(1-((1-fluorocyclopentyl)methyl)-1H-pyrazol-4-yl)pyridin-2-yl)-2,3-dimethylimidazo[1,2-a] pyridine], the pEC50 is 7.17.

`Fc1cnc(-c2ccn3cc(C(F)(F)F)nc3c2)c(-c2cnn(CC3(F)CCCC3)c2)c1` [Example 98, 7-(5-fluoro-3-(1-((1-fluorocyclopentyl)methyl)-1H-pyrazol-4-yl)pyridin-2-yl)-2-(trifluoromethyl)imidazo [1,2-a]pyridine]: the pEC50 was 7.09.

For `Cc1nc2cc(-c3ncc(F)cc3-c3cnn(CC4(F)CCCC4)c3)ccc2n1C` [Example 99, 5-(5-fluoro-3-(1-((1-fluorocyclopentyl)methyl)-1H-pyrazol-4-yl)pyridin-2-yl)-1,2-dimethyl-1H-benzo[d]imidazole], the pEC50 is 7.08.

For `O=C1c2cc(-c3ncc(F)cc3-c3cnn(CC4(F)CCCC4)c3)ccc2CN1C1CC1` [Example 101, 2-cyclopropyl-6-(5-fluoro-3-(1-((1-fluorocyclopentyl)methyl)-1H-pyrazol-4-yl)pyridin-2-yl) isoindolin-1-one], the pEC50 is 7.16.

On to `Cc1nc2cc(-c3ncc(F)cc3-c3cnn(CC4C[C@@H](F)[C@H](F)C4)c3)ccc2n1C` [Example 102], for which the pEC50 is 6.63.

Take `CC1(Cn2cc(-c3c(C#N)ccnc3-c3ccc4cccnc4c3)cn2)CCCC1` [Example 103, 3-(1-((1-methylcyclopentyl)methyl)-1H-pyrazol-4-yl)-2-(quinolin-7-yl)isonicotinonitrile]: the pEC50 is 7.35.

As to `FC(F)(F)c1ccc(-c2cnn(CC3CCCC3)c2)c(-c2ccc3cccnc3c2)n1` [Example 104, 7-(3-(1-(cyclopentylmethyl)-1H-pyrazol-4-yl)-6-(trifluoromethyl)pyridin-2-yl)quinoline], the pEC50 was 7.70.

For the molecule `COc1cc2ccc(-c3nc(C)c(C#N)cc3-c3cnn(CC4(C)CCCC4)c3)cc2nn1` [Example 105, 6-(3-methoxycinnolin-7-yl)-2-methyl-5-(1-((1-methylcyclopentyl)methyl)-1H-pyrazol-4-yl)nicotinonitrile], the pEC50 is 7.77.

Take `Cc1nc(-c2cnc3c(c2)ncn3C)c(-c2cnn(CC3(C)CCCC3)c2)cc1C#N` [Example 106, 2-methyl-6-(3-methyl-3H-imidazo[4,5-b]pyridin-6-yl)-5-(1-((1-methylcyclopentyl)methyl)-1H-pyrazol-4-yl)nicotinonitrile]: the pEC50 was 7.09.

`Cn1cnc2cc(-c3nccc(F)c3-c3cnn(CC4(C)CCCC4)c3)cnc21` [Example 107, 6-(4-fluoro-3-(1-((1-methylcyclopentyl)methyl)-1H-pyrazol-4-yl)pyridin-2-yl)-3-methyl-3H-imidazo[4,5-b] pyridine]: the pEC50 was 7.44.

In the case of `Cn1cnc2cc(-c3nc(C(F)F)ccc3-c3cnn(CC4(F)CCCC4)c3)cnc21` [Example 108, 6-(6-(difluoromethyl)-3-(1-((1-fluorocyclopentyl)methyl)-1H-pyrazol-4-yl)pyridin-2-yl)-3-methyl-3H-imidazo[4,5-b] pyridine], the pEC50 is 7.07.

Take `Cn1cnc2cc(-c3ncc(Cl)cc3-c3cnn(CC4(C)CCCC4)c3)cnc21` [Example 109, 6-(5-chloro-3-(1-((1-methylcyclopentyl)methyl)-1H-pyrazol-4-yl)pyridin-2-yl)-3-methyl-3H-imidazo[4,5-b] pyridine]: the pEC50 is 7.16.

Consider `Cc1cn2ccc(-c3ncc(Cl)cc3-c3cnn(CC4(F)CCCC4)c3)cc2n1` [Example 110, 7-(5-chloro-3-(1-((1-fluorocyclopentyl)methyl)-1H-pyrazol-4-yl)pyridin-2-yl)-2-methylimidazo[1,2-a] pyridine], for which the pEC50 is 7.64.

Take `FC(F)c1cn2ccc(-c3ncc(Cl)cc3-c3cnn(CC4(F)CCCC4)c3)cc2n1` [Example 111, 7-(5-chloro-3-(1-((1-fluorocyclopentyl)methyl)-1H-pyrazol-4-yl)pyridin-2-yl)-2-(difluoromethyl)imidazo [1,2-a]pyridine]: the pEC50 is 7.42.

Turning to `Cc1cnc(-c2ccn3ccnc3c2)c(-c2cnn(CC3(C)CCCC3)c2)c1` [Example 112, 7-(5-methyl-3-(1-((1-methylcyclopentyl)methyl)-1H-pyrazol-4-yl)pyridin-2-yl)imidazo[1,2-a] pyridine], the pEC50 is 7.34.

As to `Cc1cnc(-c2ccn3ncnc3c2)c(-c2cnn(CC3(C)CCCC3)c2)c1` [Example 113, 7-(5-methyl-3-(1-((1-methylcyclopentyl)methyl)-1H-pyrazol-4-yl)pyridin-2-yl)-[1,2,4]triazolo[1,5-a] pyridine], the pEC50 is 7.10.

Consider `COc1nc(-c2ccn3cc(C)nc3c2)c(-c2cnn(CC3(F)CCCC3)c2)cc1F` [Example 114, 7-(5-fluoro-3-(1-((1-fluorocyclopentyl)methyl)-1H-pyrazol-4-yl)-6-methoxypyridin-2-yl)-2-methylimidazo[1,2-a]pyridine], for which the pEC50 was 6.85.

Take `Cc1cn2ccc(-c3nc(Cl)ccc3-c3cnn(CC4(C)CCCC4)c3)cc2n1` [Example 115, 7-(6-chloro-3-(1-((1-methylcyclopentyl)methyl)-1H-pyrazol-4-yl)pyridin-2-yl)-2-methylimidazo[1,2-a] pyridine]: the pEC50 is 7.68.

With `Cc1cc(-c2cnn(CC3(F)CCCC3)c2)c(-c2cnc3c(c2)C(=O)N(CC2CC2)C3)nc1Cl` [Example 116, 3-(6-chloro-3-(1-((1-fluorocyclopentyl)methyl)-1H-pyrazol-4-yl)-5-methylpyridin-2-yl)-6-(cyclopropylmethyl)-6,7-dihydro-5H-pyrrolo [3,4-b]pyridin-5-one], the pEC50 was 7.21.

For `Cc1cc(-c2cnn(CC3(F)CCCC3)c2)c(-c2cnc3c(c2)ncn3C)nc1Cl` [Example 117, 6-(6-chloro-3-(1-((1-fluorocyclopentyl)methyl)-1H-pyrazol-4-yl)-5-methylpyridin-2-yl)-3-methyl-3H-imidazo[4,5-b]pyridine], the pEC50 is 7.35.

The record behind these values is US11149036B2, “3-(1H-pyrazol-4-yl)pyridine allosteric modulators of the M4 muscarinic acetylcholine receptor” (Merck Sharp & Dohme Corp., priority 2017, dated 2021).
